A short description of data set [1]: In vitro dissolution test, microcentrifuge method, in model fasted duodenal solution (MFDS). Type of data set: physicochemical. As for the experimental part: The compositions comprising the CETP inhibitor and concentration-enhancing polymer provide enhanced concentration of the dissolved CETP inhibitor in in vitro dissolution tests. It has been determined that enhanced drug concentration in in vitro dissolution tests in Model Fasted Duodenal (MFD) solution or Phosphate Buffered Saline (PBS) is a good indicator of in vivo performance and bioavailability. An appropriate PBS solution is an aqueous solution comprising 20 mM sodium phosphate (Na2HPO4), 47 mM potassium phosphate (KH2PO4), 87 mM NaCl, and 0.2 mM KCl, adjusted to pH 6.5 with NaOH. An appropriate MFD solution is the same PBS solution wherein additionally is present 7.3 mM sodium taurocholic acid and 1.4 mM of 1-palmitoyl-2-oleyl-sn-glycero-3-phosphocholine. In particular, a composition of the present invention can be dissolution-tested by adding it to MFD or PBS solution and agitating to promote dissolution.
A typical in vitro test to evaluate enhanced drug concentration in aqueous solution can be conducted by (1) adding with agitation a sufficient quantity of control composition, typically the CETP inhibitor alone, to the in vitro test medium, typically MFD or PBS solution, to achieve equilibrium concentration of the CETP inhibitor; (2) adding with agitation a sufficient quantity of test composition (e.g., the CETP inhibitor and polymer) in an equivalent test medium, such that if all the CETP inhibitor dissolved, the theoretical concentration of CETP inhibitor would exceed the equilibrium concentration of the CETP inhibitor by a factor of at least 10, and preferably a factor of at least 100; and (3) comparing the measured MDC and/or aqueous concentration versus time AUC of the test composition in the test medium with the equilibrium concentration, and/or the aqueous concentration versus time AUC of the control composition. In conducting such a dissolution test, the amount of test composition or control composition used is an amount such that if all of the CETP inhibitor dissolved the CETP inhibitor concentration would be at least 10-fold and preferably at least 100-fold that of the equilibrium concentration. Indeed, for some extremely insoluble CETP inhibitors, in order to identify the MDC achieved it may be necessary to use an amount of test composition such that if all of the CETP inhibitor dissolved, the CETP inhibitor concentration would be 10,000-fold or even more, that of the equilibrium concentration of the CETP inhibitor.
The concentration of dissolved CETP inhibitor is typically measured as a function of time by sampling the test medium and plotting CETP inhibitor concentration in the test medium vs. time so that the MDC can be ascertained. The MDC is taken to be the maximum value of dissolved CETP inhibitor measured over the duration of the test.
To avoid large CETP inhibitor particulates which would give an erroneous determination, the test solution is either filtered or centrifuged. “Dissolved CETP inhibitor” is typically taken as that material that either passes a 0.45 μm syringe filter or, alternatively, the material that remains in the supernatant following centrifugation. Filtration can be conducted using a 13 mm, 0.45 μm polyvinylidine difluoride syringe filter sold by Scientific Resources under the trademark TITAN®. Centrifugation is typically carried out in a polypropylene microcentrifuge tube by centrifuging at 13,000 G for 60 seconds. Other similar filtration or centrifugation methods can be employed and useful results obtained. For example, using other types of microfilters may yield values somewhat higher or lower (±10-40%) than that obtained with the filter specified above but will still allow identification of preferred dispersions. […]

A short description of data set [2]: Solubility in water. Type of data set: physicochemical. An excerpt: The invention is useful for CETP inhibitors which have sufficiently low aqueous solubility, low bioavailability or slow rate of absorption such that it is desirable to increase their concentration in an aqueous environment of use. Therefore, anytime one finds it desirable to raise the aqueous concentration of the CETP inhibitor in a use environment, the invention will find utility.

Where [3] appears, read: Table 9, Drug 2, receptor solution MFDS, TCmax 400 μg/mL (Examples 14-16: 100 μg/mL).
The mark [4] stands for this setting: aqueous solubility determined at about 22° C. unless otherwise specified, read-out: solubility in water.

From patent US8389011B2, “Pharmaceutical compositions of cholesteryl ester transfer protein inhibitors” (Bend Research, Inc., priority 2000, dated 2013) come the findings set out here.

Each structure is given as a SMILES string. In brackets after ≈: the same amount, converted by molar mass. Like-named read-outs stand apart in the source and are kept apart here. Some results are limits rather than exact numbers.

By solubility is commonly meant the concentration that dissolves in the medium under given conditions.

With `COC(=O)N(Cc1cc(C(F)(F)F)cc(C(F)(F)F)c1)[C@@H]1C[C@H](C2CC2)N(C(=O)OC(C)C)c2ccc(C(F)(F)F)cc21` [Control 1, [2R,4R]4-[(3,5-bis-trifluoromethyl-benzyl)-methoxycarbonyl-amino]-2-cyclopropyl-6-trifluoromethyl-3,4-dihydro-2H-quinoline-1-carboxylic acid isopropyl ester], the Concentration in data set [1] (Table 2, Drug 1, MFDS, 37° C., 0 min, TCmax 100 μg/mL (Example 4: 500 μg/mL)) is 0 ng/mL; in data set [1] (Table 2, Drug 1, MFDS, 37° C., 4 min, TCmax 100 μg/mL), below 100 ng/mL; in data set [1] (Table 2, Drug 1, MFDS, 37° C., 10 min, TCmax 100 μg/mL (Example 4: 500 μg/mL)), 300 ng/mL; in data set [1] (Table 2, Drug 1, MFDS, 37° C., 20 min, TCmax 100 μg/mL), 300 ng/mL; in data set [1] (Table 2, Drug 1, MFDS, 37° C., 40 min, TCmax 100 μg/mL), 900 ng/mL; in data set [1] (Table 2, Drug 1, MFDS, 37° C., 90 min, TCmax 100 μg/mL (Example 4: 500 μg/mL)), 800 ng/mL. The AUC in data set [1] (Table 2, Drug 1, MFDS, 37° C., to 0 min, TCmax 100 μg/mL (Example 4: 500 μg/mL)) is 0 min-μg/mL; in data set [1] (Table 2, Drug 1, MFDS, 37° C., to 4 min, TCmax 100 μg/mL), below 0.1 min-μg/mL; in data set [1] (Table 2, Drug 1, MFDS, 37° C., to 10 min, TCmax 100 μg/mL (Example 4: 500 μg/mL)), 1 min-μg/mL; in data set [1] (Table 2, Drug 1, MFDS, 37° C., to 20 min, TCmax 100 μg/mL), 4 min-μg/mL; in data set [1] (Table 2, Drug 1, MFDS, 37° C., to 40 min, TCmax 100 μg/mL) it was 16 min-μg/mL; in data set [1] (Table 2, Drug 1, MFDS, 37° C., to 90 min, TCmax 100 μg/mL (Example 4: 500 μg/mL)), 57 min-μg/mL. Besides, in data set [1] (Table 3, area under the aqueous concentration versus time curve during the 90-minute test, Drug 1, MFDS, TCmax 100 μg/mL (Example 4: 500 μg/mL)), the AUC90 worked out at 57 min-μg/mL. Further, the “Cmax, 90” value in data set [1] (Table 3, maximum concentration of Drug 1 in solution during the 90-minute test, MFDS, TCmax 100 μg/mL (Example 4: 500 μg/mL)) came out at 900 ng/mL.

As for `CCOC(=O)N1c2ccc(C(F)(F)F)cc2[C@@H](N(Cc2cc(C(F)(F)F)cc(C(F)(F)F)c2)C(=O)OC)C[C@H]1CC` [Control 3, [2R,4S]4-[(3,5-bis-trifluoromethyl-benzyl)-methoxycarbonyl-amino]-2-ethyl-6-trifluoromethyl-3,4-dihydro-2H-quinoline-1-carboxylic acid ethyl ester], the Concentration was 0 ng/mL in data set [1] (Table 8, Drug 2, receptor MFDS, 0 min, TCmax 400 μg/ml (Examples 14-16: 100 μg/ml)); below 1000 ng/mL in data set [1] (Table 8, Drug 2, receptor MFDS, 4 min, TCmax 400 μg/ml); below 1000 ng/mL in data set [1] (Table 8, Drug 2, receptor MFDS, 10 min, TCmax 400 μg/ml (Examples 14-16: 100 μg/ml)); below 1000 ng/mL in data set [1] (Table 8, Drug 2, receptor MFDS, 20 min, TCmax 400 μg/ml (Examples 14-16: 100 μg/ml)); below 1000 ng/mL in data set [1] (Table 8, Drug 2, receptor MFDS, 40 min, TCmax 400 μg/ml (Examples 14-16: 100 μg/ml)); below 1000 ng/mL in data set [1] (Table 8, Drug 2, receptor MFDS, 90 min, TCmax 400 μg/ml (Examples 14-16: 100 μg/ml)). Moreover, the AUC is 0 min-μg/ml in data set [1] (Table 8, Drug 2, receptor MFDS, to 0 min, TCmax 400 μg/ml (Examples 14-16: 100 μg/ml)); below 4 min-μg/ml in data set [1] (Table 8, Drug 2, receptor MFDS, to 4 min, TCmax 400 μg/ml); below 10 min-μg/ml in data set [1] (Table 8, Drug 2, receptor MFDS, to 10 min, TCmax 400 μg/ml (Examples 14-16: 100 μg/ml)); below 20 min-μg/ml in data set [1] (Table 8, Drug 2, receptor MFDS, to 20 min, TCmax 400 μg/ml (Examples 14-16: 100 μg/ml)); below 40 min-μg/ml in data set [1] (Table 8, Drug 2, receptor MFDS, to 40 min, TCmax 400 μg/ml (Examples 14-16: 100 μg/ml)); below 90 min-μg/ml in data set [1] (Table 8, Drug 2, receptor MFDS, to 90 min, TCmax 400 μg/ml (Examples 14-16: 100 μg/ml)). The AUC90 is listed as below 90 min-μg/mL in data set [1] (setting [3]) and below 90 min-μg/mL in data set [1] (Table 22: Drug 2, MFD solution). In addition, the “Cmax, 90” value was below 1000 ng/mL in data set [1] (setting [3]) and below 1000 ng/mL in data set [1] (Table 22: Drug 2, MFD solution).

As for `COC(=O)N(Cc1cc(C(F)(F)F)cc(C(F)(F)F)c1)[C@@H]1C[C@H](C2CC2)N(C(=O)OC(C)C)c2ccc(C(F)(F)F)cc21` [Drug 1, [2R,4R]4-[(3,5-bis-trifluoromethyl-benzyl)-methoxycarbonyl-amino]-2-cyclopropyl-6-trifluoromethyl-3,4-dihydro-2H-quinoline-1-carboxylic acid isopropyl ester], the solubility in data set [2] (setting [4]) was below 1 µg/mL.

In the case of `CCOC(=O)N1c2ccc(C(F)(F)F)cc2[C@@H](N(Cc2cc(C(F)(F)F)cc(C(F)(F)F)c2)C(=O)OC)C[C@H]1CC` [Drug 2, [2R,4S]4-[(3,5-bis-trifluoromethyl-benzyl)-methoxycarbonyl-amino]-2-ethyl-6-trifluoromethyl-3,4-dihydro-2H-quinoline-1-carboxylic acid ethyl ester], the solubility in data set [2] (22 °C, crystalline drug, read-out: solubility of crystalline Drug 2 (accurate measurements)) is around 0.01 µg/mL (≈ 0.0167 µM); in data set [2] (setting [4]), below 1 µg/mL.

Consider `CCCOC(=O)N1c2ccc(C(F)(F)F)cc2[C@@H](N(Cc2cc(C(F)(F)F)cc(C(F)(F)F)c2)C(=O)OC)C[C@H]1CC` [Drug 3, [2R,4S]4-[(3,5-bis-trifluoromethyl-benzyl)-methoxycarbonyl-amino]-2-ethyl-6-trifluoromethyl-3,4-dihydro-2H-quinoline-1-carboxylic acid propyl ester], for which the solubility in data set [2] (setting [4]) was below 0.1 µg/mL.

For `CCOC(=O)N1c2cc(OC)c(OC)cc2[C@@H](N(Cc2cc(C(F)(F)F)cc(C(F)(F)F)c2)C(=O)OC)C[C@H]1C` [Drug 4, [2R,4S]4-[(3,5-bis-trifluoromethyl-benzyl)-methoxycarbonyl-amino]-6,7-dimethoxy-2-methyl-3,4-dihydro-2H-quinoline-1-carboxylic acid ethyl ester], the solubility in data set [2] (setting [4]) is below 1 µg/mL.

`CCOC(=O)N1c2cc(CC)c(CC)cc2[C@@H](N(Cc2cc(C(F)(F)F)cc(C(F)(F)F)c2)C(=O)OC)C[C@H]1C` [Drug 5, [2R,4S]4-[(3,5-bis-trifluoromethyl-benzyl)-methoxycarbonyl-amino]-6,7-diethyl-2-methyl-3,4-dihydro-2H-quinoline-1-carboxylic acid ethyl ester]: the solubility in data set [2] (setting [4]) was below 1 µg/mL.

On to `CCOC(=O)N1c2cc3c(cc2[C@@H](N(Cc2cc(C(F)(F)F)cc(C(F)(F)F)c2)C(=O)OC)C[C@H]1C)CCC3` [Drug 6, [2R,4S]4-[(3,5-bis-trifluoromethyl-benzyl)-methoxycarbonyl-amino]-2-methyl-2,3,4,6,7,8-hexahydro-cyclopenta[g]quinoline-1-carboxylic acid ethyl ester], for which, in data set [2] (setting [4]), the solubility is below 1 µg/mL.

As to `CC[C@@H]1C[C@H](N(Cc2cc(C(F)(F)F)cc(C(F)(F)F)c2)C(C)=O)c2cc(C(F)(F)F)ccc2N1C(=O)OC(C)C` [Drug 7, [2R,4S]4-[acetyl-(3,5-bis-trifluoromethyl-benzyl)-amino]-2-ethyl-6-trifluoromethyl-3,4-dihydro-2H-quinoline-1-carboxylic acid isopropyl ester], the solubility in data set [2] (setting [4]) was below 1 µg/mL.
